The values that follow come from paper PMC9386204, “Design, synthesis, and in silico studies of quinoline-based-benzo[d]imidazole bearing different acetamide derivatives as potent α-glucosidase inhibitors” (Scientific Reports, 2022).

Data set [1] addresses T1, α-glucosidase (Saccharomyces cerevisiae, UniProt P53341). Put plainly: α-Glucosidase inhibitory assay. The note with it: for IC50: α-glucosidase inhibition, mean ± SD.
Procedure: The α-glucosidase inhibitory activities of all synthesized derivatives were assayed according to the previously reported procedure[9],[36].
The nature of data set [2]: Concentrations of precipitation. In kind it is physicochemical. An excerpt:
Table 1 α-Glucosidase inhibitory activity of compounds 9a–r. | column: Concentrations of precipitation (µM)

Data set [3] concerns the target T1, α-glucosidase. In words: Enzyme kinetic studies (Lineweaver–Burk plot, secondary plot). The note with it: Km increased, Vmax unchanged. In kind it is biochemical. As to the method: A Lineweaver–Burk plot was generated to identify the type of inhibition and the Michaelis–Menten constant (Km) value was determined from the plot between reciprocal of the substrate concentration (1/[S]) and reciprocal of enzyme rate (1/V) over various inhibitor concentrations. The experimental inhibitor constant (Ki) value was constructed by secondary plots of the inhibitor concentration [I] versus Km[6].

A word on the IC50: it is the concentration that inhibits the measured activity by half. Low readings indicate higher potency, high ones lower potency. For orientation: melting point means the temperature of the solid-liquid transition.

T1 sequence (P53341 whole entry): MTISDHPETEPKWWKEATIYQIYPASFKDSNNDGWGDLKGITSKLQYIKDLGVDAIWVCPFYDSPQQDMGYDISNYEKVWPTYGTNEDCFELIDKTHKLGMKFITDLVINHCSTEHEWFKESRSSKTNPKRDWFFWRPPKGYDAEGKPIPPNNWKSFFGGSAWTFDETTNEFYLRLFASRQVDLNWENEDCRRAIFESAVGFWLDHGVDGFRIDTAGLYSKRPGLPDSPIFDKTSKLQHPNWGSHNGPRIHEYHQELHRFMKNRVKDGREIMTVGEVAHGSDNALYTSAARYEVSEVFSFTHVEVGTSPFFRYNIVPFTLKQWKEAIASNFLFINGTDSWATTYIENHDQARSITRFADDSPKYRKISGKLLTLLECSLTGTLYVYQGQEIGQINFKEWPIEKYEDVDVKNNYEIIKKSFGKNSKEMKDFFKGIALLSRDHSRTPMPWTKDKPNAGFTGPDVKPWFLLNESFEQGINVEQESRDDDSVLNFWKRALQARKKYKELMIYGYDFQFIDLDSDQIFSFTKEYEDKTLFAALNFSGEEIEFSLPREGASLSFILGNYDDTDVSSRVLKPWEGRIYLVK

Take “2-((3-(1H-benzo[d]imidazol-2-yl)naphthalen-2-yl)thio)-N-(4-fluorophenyl)acetamide [Compound 9c]”: the IC50 in data set [1] amounted to 13.5 ± 0.6 µM. For the same molecule, the Concentrations of precipitation in data set [2] is reported as ≥ 200 µM.

`O=C(CSc1nc2ccccc2cc1-c1nc2ccccc2[nH]1)Nc1ccccc1` [Compound 9a, 2-((3-(1H-benzo[d]imidazol-2-yl)quinolin-2-yl)thio)-N-phenylacetamide]: the Concentrations of precipitation in data set [2] is ≥ 200 µM.

The molecule `O=C(CSc1nc2ccccc2cc1-c1nc2ccccc2[nH]1)Nc1ccccc1F` [Compound 9b, 2-((3-(1H-benzo[d]imidazol-2-yl)quinolin-2-yl)thio)-N-(2-fluorophenyl)acetamide] gave a melting point of 183 to 185 °C. Moreover, the “fold loss of potency compared to 9a” value in data set [1] (versus 9a) is listed as “around the twofold loss of potency”. The Concentrations of precipitation in data set [2] was ≥ 200 µM.

As for `O=C(CSc1nc2ccccc2cc1-c1nc2ccccc2[nH]1)Nc1cccc(Cl)c1` [Compound 9d, 2-((3-(1H-benzo[d]imidazol-2-yl)quinolin-2-yl)thio)-N-(3-chlorophenyl)acetamide], the melting point lay within 190 to 192 °C. Besides, in data set [3], the type of inhibition entry is recorded as “competitive inhibition”. Besides, the Concentrations of precipitation in data set [2] is given as ≥ 200 µM.

For the molecule `O=C(CSc1nc2ccccc2cc1-c1nc2ccccc2[nH]1)Nc1ccc(Cl)cc1` [Compound 9e, 2-((3-(1H-benzo[d]imidazol-2-yl)quinolin-2-yl)thio)-N-(4-chlorophenyl)acetamide], the melting point lay within 185 to 187 °C. In data set [2], the Concentrations of precipitation was ≥ 200 µM.

The molecule `O=C(CSc1nc2ccccc2cc1-c1nc2ccccc2[nH]1)Nc1ccccc1Br` [Compound 9f, 2-((3-(1H-benzo[d]imidazol-2-yl)quinolin-2-yl)thio)-N-(2-bromophenyl)acetamide] returned a melting point of 181 to 183 °C. In data set [2], the Concentrations of precipitation is listed as ≥ 200 µM.

In turn, `O=C(CSc1nc2ccccc2cc1-c1nc2ccccc2[nH]1)Nc1ccc(Br)cc1` [Compound 9g, 2-((3-(1H-benzo[d]imidazol-2-yl)quinolin-2-yl)thio)-N-(4-bromophenyl)acetamide] gave a melting point of 185 to 187 °C. Besides, the Concentrations of precipitation in data set [2] is reported as ≥ 200 µM.

In turn, `O=C(CSc1nc2ccccc2cc1-c1nc2ccccc2[nH]1)Nc1c(Cl)cccc1Cl` [Compound 9h, 2-((3-(1H-benzo[d]imidazol-2-yl)quinolin-2-yl)thio)-N-(2,6-dichlorophenyl)acetamide] gave a melting point of 188 to 190 °C. Besides, the Concentrations of precipitation in data set [2] was ≥ 200 µM.

`O=C(CSc1nc2ccccc2cc1-c1nc2ccccc2[nH]1)Nc1ccc([N+](=O)[O-])cc1` [Compound 9i, 2-((3-(1H-benzo[d]imidazol-2-yl)quinolin-2-yl)thio)-N-(4-nitrophenyl)acetamide] returned a melting point of 180 to 182 °C. In addition, the Concentrations of precipitation in data set [2] was ≥ 200 µM.

For `Cc1ccccc1NC(=O)CSc1nc2ccccc2cc1-c1nc2ccccc2[nH]1` [Compound 9j], in data set [2], the Concentrations of precipitation is recorded as ≥ 200 µM.

For the molecule `Cc1ccc(NC(=O)CSc2nc3ccccc3cc2-c2nc3ccccc3[nH]2)cc1` [Compound 9k], the melting point was in the range of 181 to 183 °C. In addition, the Concentrations of precipitation in data set [2] is ≥ 200 µM.

The molecule `COc1ccc(NC(=O)CSc2nc3ccccc3cc2-c2nc3ccccc3[nH]2)cc1` [Compound 9l, 2-((3-(1H-benzo[d]imidazol-2-yl)quinolin-2-yl)thio)-N-(4-methoxyphenyl)acetamide] registered a melting point of 191 to 193 °C. For the same molecule, the Concentrations of precipitation in data set [2] is listed as ≥ 200 µM.

Turning to `CCc1ccc(NC(=O)CSc2nc3ccccc3cc2-c2nc3ccccc3[nH]2)cc1` [Compound 9m, 2-((3-(1H-benzo[d]imidazol-2-yl)quinolin-2-yl)thio)-N-(4-ethylphenyl)acetamide], the melting point was 178 to 180 °C. For the same molecule, the Concentrations of precipitation in data set [2] is reported as ≥ 200 µM.

On to `Cc1cccc(NC(=O)CSc2nc3ccccc3cc2-c2nc3ccccc3[nH]2)c1C` [Compound 9n, 2-((3-(1H-benzo[d]imidazol-2-yl)quinolin-2-yl)thio)-N-(2,3-dimethylphenyl)acetamide], for which the melting point fell in the range of 185 to 187 °C. For the same molecule, the Concentrations of precipitation in data set [2] is recorded as ≥ 200 µM.

`Cc1cccc(C)c1NC(=O)CSc1nc2ccccc2cc1-c1nc2ccccc2[nH]1` [Compound 9o, 2-((3-(1H-benzo[d]imidazol-2-yl)quinolin-2-yl)thio)-N-(2,6-dimethylphenyl)acetamide] came in with a melting point of 185 to 187 °C. Also, the Concentrations of precipitation in data set [2] is on record as ≥ 200 µM.

On to `O=C(CSc1nc2ccccc2cc1-c1nc2ccccc2[nH]1)Nc1ccc2ccccc2c1` [Compound 9p, 2-((3-(1H-benzo[d]imidazol-2-yl)quinolin-2-yl)thio)-N-(naphthalen-2-yl)acetamide], for which the half-inhibitory concentration (IC50) in data set [1] was determined as 17.7 ± 0.8 µM. For the same molecule, the Concentrations of precipitation in data set [2] is recorded as ≥ 200 µM.

In turn, `O=C(CSc1nc2ccccc2cc1-c1nc2ccccc2[nH]1)NCc1ccccc1` [Compound 9q, 2-((3-(1H-benzo[d]imidazol-2-yl)quinolin-2-yl)thio)-N-benzylacetamide] came in with a melting point of 183 to 185 °C. Moreover, the Concentrations of precipitation in data set [2] was ≥ 200 µM.

On to `O=C(CSc1nc2ccccc2cc1-c1nc2ccccc2[nH]1)NCc1ccc(F)cc1` [Compound 9r, 2-((3-(1H-benzo[d]imidazol-2-yl)quinolin-2-yl)thio)-N-(4-fluorobenzyl)acetamide], for which the melting point fell in the range of 186 to 188 °C. Further, the Concentrations of precipitation in data set [2] was ≥ 200 µM.
